The results in this text go back to US20220411362A1, “DITERPENOID COMPOUNDS THAT ACT ON PROTEIN KINASE C (PKC)” (K-Gen, Inc., priority 2019, published 2022).

Each structure is given as a SMILES string.

In experiment [1] the test system is Panc2.13 (Pancreatic) cell line. The experiment is described as follows: Proliferation of Panc2.13. The experiment is classed as cell-based. To be noted: for ratio of (IC50 of K01)/(IC50 of compound), Panc2.13: value in parenthesis; for IC50: read-out: IC50 in μM Panc2.13 (Pancreatic). The method in brief:
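After a 24 h settling period at 37° C, each line received compound from a 3-fold serial series with DMSO capped at 0.25%. Incubation ran 96 h before CellTiter Glo reagent was added. Inhibition % = (Max − sample)/Max × 100, with Max from DMSO-treated cells.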

In a further experiment the target is T1, C1b domain of human PKCδ (Homo sapiens, UniProt Q05655).
T1 construct: Genes encoding C1b domains of human PKCα, δ, ε, θ, and PKD1 (PKCμ) were synthesized; made in house; host or cells: E. coli BL21(DE3)
Description: Competitive 3H-PDBu binding to C1b domain of PKCδ. Particulars: Ki PKCδ, 3H-PDBu competition. An outline of the steps: (§1)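 Affinity was measured by competition with the radiotracer 3H-PDBu for recombinant human GST-C1b fusion proteins expressed in E. coli BL21(DE3). Incubation ran 10 minutes at 37° C with shaking, then 20 minutes on ice, and filter-trapped 3H-PDBu was counted by scintillation. IC50 values were converted to Ki by Cheng-Prusoff using the experimentally determined Kd for each protein preparation.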

A further experiment relates to PANC1 cells. Description: Sphere formation assay (cancer stemness). The experiment is classed as cell-based. To be noted: Homo sapiens, PANC-1, read-out: concentration exhibiting at least 50% inhibition on the sphere forming efficiency. As to the method:
A group of diterpenoid compounds of the present disclosure were tested to assess their effects on blocking formation of spheres from cancer cell lines such as PANC1, a K-Ras mutant pancreatic cell line. Briefly, PANC1 cells were harvested, re-suspended as single cell suspensions, counted and seeded into Ultra Low Attachment Culture 96-well plate (Corning, Cat #3474) at 100 cells/well in 100 μl of complete media (with 10% FBS) containing 2% Matrigel (Corning, Cat #354234) and DMSO or compounds. Six replicates per condition were seeded. The seeded cells were placed in the 37° C. tissue culture incubator. 10 μl of low serum containing media (with 0.1% FBS) was added to each well every week. Spheres formed after 3-4 weeks were counted. Sphere forming efficiency was expressed as percentage of # of spheres/# of cells seeded.

In experiment [2] the test system is Mino (Lymphoma) cell line. Description: Proliferation of Mino. The experiment is classed as cell-based. Particulars: for IC50: Homo sapiens, MINO, read-out: IC50 in μM Mino (Lymphoma); for ratio of (IC50 of K01)/(IC50 of compound), Mino: value in parenthesis. The method in brief:
(§2)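 Cells seeded at 800-1000 (KP-4), 5000 (HL-60) or 5000-10000 (Namalwa, Mino) per well, then treated with 3-fold serial dilutions (final DMSO ≤0.25%) for 96 h. Viability read by CellTiter Glo luminescence, % inhibition vs DMSO; IC50 normalised across batches as IC50 of comparator K01 / IC50 of compound.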

Experiment [3] deals with T2, C1b domain of human PKD1 (PKCμ) (Homo sapiens, UniProt Q15139).
T2 construct: Genes encoding C1b domains of human PKCα, δ, ε, θ, and PKD1 (PKCμ) were synthesized; made in house; host or cells: E. coli BL21(DE3)
T2 sequence (Q15139 270-320 limits assumed): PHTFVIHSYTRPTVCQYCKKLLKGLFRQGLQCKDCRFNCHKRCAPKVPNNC
The experiment is described as follows: biochemical. The experiment is classed as binding. An outline of the steps: as §1

For a further experiment, the target named is T3, C1b domain of human PKCα (Homo sapiens, UniProt P17252).
T3 construct: Genes encoding C1b domains of human PKCα, δ, ε, θ, and PKD1 (PKCμ) were synthesized; made in house; host or cells: E. coli BL21(DE3)
Description: biochemical. The format is binding. To be noted: 3H-PDBu competition; for Ki: Ki PKCα. The method in brief: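 Competitive binding against 3H-PDBu tracer used recombinant GST-C1b fusion protein expressed in E. coli. Incubation ran 10 min at 37°C with shaking, then 20 min on ice, followed by filtration and scintillation counting of trapped 3H-PDBu. Affinity was derived using each protein preparation's experimentally determined Kd for 3H-PDBu.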

The target of a further experiment is T4, C1b domain of human PKCε (Homo sapiens, UniProt Q02156).
T4 construct: Genes encoding C1b domains of human PKCα, δ, ε, θ, and PKD1 (PKCμ) were synthesized; made in house; host or cells: E. coli BL21(DE3)
Description: Competitive 3H-PDBu binding to C1b domain of PKCε. An outline of the steps:
as §1

The subject of experiment [4] is Namalwa (Lymphoma) cell line. Description: Proliferation of Namalwa. The experiment is classed as cell-based. Particulars: for ratio of (IC50 of K01)/(IC50 of compound), Namalwa: value in parenthesis; for IC50: read-out: IC50 in μM Namalwa (Lymphoma). The method in brief: as §2
The test system of experiment [5] is A549 non-small cell lung cancer cell line. The experiment is described as follows: Proliferation of A549 (CellTiter Glo). The experiment is classed as cell-based. To be noted: Homo sapiens, A549, 96 h, read-out: IC50 μM (A549 Cell Line). The method in brief: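 A549 cells (K-Ras mutant) seeded 1,000/well, 24 h at 37° C, then treated with 3-fold serial dilutions (final DMSO ≤0.25%) for 96 h. Viability by CellTiter Glo luminescence; % inhibition vs DMSO-only Max, curve-fit to give IC50, relative IC50 and % top inhibition.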

T1 sequence (Q05655 230-280 limits assumed): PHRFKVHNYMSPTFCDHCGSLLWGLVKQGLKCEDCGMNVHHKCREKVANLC
T4 sequence (Q02156 242-292 limits assumed): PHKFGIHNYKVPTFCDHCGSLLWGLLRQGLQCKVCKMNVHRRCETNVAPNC

In general, Ki refers to the dissociation constant of the complex between target and ligand, obtained from inhibition or displacement. Low readings indicate higher affinity, high ones lower affinity. On to `CC1=C[C@H]2[C@@]3(O)[C@H](C)C[C@]4(OC(=O)[C@H](N)CCCCCCc5ccccc5)[C@H]([C@@H]3C=C(CO)C[C@]2(O)C1=O)C4(C)C` [Compound K101-C134801], for which the “ratio of (IC50 of K01)/(IC50 of compound), Panc2.13” value (“ratio … Panc2.13” for short) in experiment [1] was 13.4. The IC50 in experiment [1] was 0.06 to 0.1 µM; in the experiment with PANC1 cells, no more than 150 nM; in experiment [2], 0.001 to 0.01 µM; in experiment [4] it was 0.01 to 0.03 µM; in [5], 0.01 to 0.03 µM. Also, the inhibition constant Ki is 5 to 10 nM on C1b domain of human PKCδ, less than 5 nM in experiment [3], 400 to 800 nM at C1b domain of human PKCα and 1 to 30 nM at C1b domain of human PKCε. For the same compound, the “ratio of (IC50 of K01)/(IC50 of compound), Mino” value (shortened to “ratio … Mino”) in [2] is reported as 21.3. In addition, in [4], the “ratio of (IC50 of K01)/(IC50 of compound), Namalwa” value (“ratio … Namalwa” below) was 4.93.
With `CC1=C[C@H]2[C@@]3(O)[C@H](C)C[C@]4(OC(=O)[C@@H](N)CC5CCCCC5)[C@H]([C@@H]3C=C(CO)C[C@]2(O)C1=O)C4(C)C` [Compound K101-C1327], the “ratio … Panc2.13” value in [1] worked out at 7.1. Moreover, the IC50 in experiment [1] lay within 0.1 to 0.2 µM; in experiment [2], 0.001 to 0.01 µM; in experiment [4] it was 0.03 to 0.06 µM; in experiment [5], 0.06 to 0.1 µM. Besides, the results for the Ki (at C1b domain of human PKCδ; in experiment [3]; on C1b domain of human PKCε) were less than 5 nM, less than 5 nM and 1 to 30 nM, respectively. The “ratio … Mino” value in [2] turned out to be 7.33. Also, the “Ki PKCα” value on C1b domain of human PKCα is “E (E=>60 nM and ≤10 nM)”. Moreover, in experiment [4], the “ratio … Namalwa” value was determined as 2.03.
For the compound `CC1=C[C@H]2[C@@]3(O)[C@H](C)C[C@]4(OC(=O)[C@@H](N)[C@]56C[C@H]7C[C@H](C[C@H](C7)C5)C6)[C@H]([C@@H]3C=C(CO)C[C@]2(O)C1=O)C4(C)C` [Compound K101-C1347], in experiment [1], the “ratio … Panc2.13” value is listed as 71.7. The IC50 was 0.01 to 0.03 µM in experiment [1]; no more than 50 nM in the experiment on PANC1 cells; 0.001 to 0.01 µM in experiment [2]; 0.001 to 0.01 µM in experiment [4]; 0.001 to 0.01 µM in experiment [5]. Besides, the Ki on C1b domain of human PKCδ is less than 5 nM; in experiment [3] it was less than 5 nM; on C1b domain of human PKCα, 1 to 30 nM; on C1b domain of human PKCε, 5 to 10 nM. The “ratio … Mino” value in experiment [2] turned out to be 52.2. The “ratio … Namalwa” value in experiment [4] came out at 18.2.
Consider `CC1=C[C@H]2[C@@]3(O)[C@H](C)C[C@]4(OC(=O)[C@@H](N)CCCCCCc5ccccc5)[C@H]([C@@H]3C=C(CO)C[C@]2(O)C1=O)C4(C)C` [Compound K101-C134802], for which the “ratio … Panc2.13” value in experiment [1] is given as 57.3. Also, the IC50 was 0.01 to 0.03 µM in experiment [1]; no more than 50 nM in the experiment with PANC1 cells; 0.001 to 0.01 µM in experiment [2]; 0.001 to 0.01 µM in experiment [4]; 0.001 to 0.01 µM in experiment [5]. For the same compound, the Ki on C1b domain of human PKCδ was less than 5 nM; in experiment [3] it was less than 5 nM; on C1b domain of human PKCα, 30 to 60 nM; at C1b domain of human PKCε, 1 to 30 nM. Also, in experiment [2], the “ratio … Mino” value amounted to 52.2. Also, the “ratio … Namalwa” value in [4] came out at 16.1.
